The subject of one test is LOLRI. As to the kind of experiment: Pre-emergence action at 320 g/ha against LOLRI. It is filed as in vivo, Lolium rigidum. Particulars: visual scoring after about 3 weeks vs untreated controls. In a few lines: (§1)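 Weed seeds sown in pots and covered with soil; compounds formulated as WP or EC were sprayed onto the soil surface as aqueous suspension or emulsion with 0.5% additive at 600 l/ha water. Pots kept in greenhouse; activity scored visually after about 3 weeks versus untreated controls (100% = plants dead, 0% = like control).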

The next test deals with MATIN. As to the kind of experiment: Pre-emergence action at 320 g/ha against MATIN. It is filed as in vivo, Tripleurospermum inodorum (Matricaria inodora). Particulars: visual scoring after about 3 weeks vs untreated controls. In a few lines: as §1
Another test has as its system VERPE. The test can be described thus: Pre-emergence action at 320 g/ha against VERPE. It is filed as in vivo, Veronica persica. The settings on record: visual scoring after about 3 weeks vs untreated controls. In a few lines:
as §1

Test [1] has as its system POLCO. As to the kind of experiment: Pre-emergence action at 320 g/ha against POLCO. The settings on record: visual scoring after about 3 weeks vs untreated controls. The test is classed as in vivo, Fallopia convolvulus (Polygonum convolvulus). Summed up:
as §1

For test [2], the system named is ALOMY. As to the kind of experiment: Pre-emergence action at 320 g/ha against ALOMY. The test is classed as in vivo, Alopecurus myosuroides. The settings on record: scored visually after about 3 weeks vs untreated controls (100% = plants have died). Summed up: as §1
The test system of test [3] is SETVI. As to the kind of experiment: Pre-emergence action at 320 g/ha against SETVI. It is filed as in vivo, Setaria viridis. The settings on record: visual scoring after about 3 weeks vs untreated controls. In a few lines: as §1
For test [4], the system named is VIOTR. The test can be described thus: Pre-emergence action at 320 g/ha against VIOTR. It is filed as in vivo, Viola tricolor. Particulars: dosage 320 g/ha. Summed up:
as §1

The test system of test [5] is AVEFA. As to the kind of experiment: Pre-emergence action at 320 g/ha against AVEFA. It is filed as in vivo. Particulars: visual scoring after about 3 weeks vs untreated controls. Summed up:
as §1

For a further test, the system named is PHBPU. The test can be described thus: Pre-emergence action at 320 g/ha against PHBPU. It is filed as in vivo. Particulars: visual scoring after about 3 weeks vs untreated controls. From the text: b) Seeds of monocotyledonous and dicotyledonous weed plants and crop plants are placed in plastic or organic planting pots and covered with soil. The compounds of the invention, formulated in the form of wettable powders (WP) or as emulsion concentrates (EC), are then applied onto the surface of the covering soil as aqueous suspension or emulsion with addition of 0.5% additive at a water application rate of 600 l/ha (converted). After the treatment, the pots are placed in a greenhouse and kept under good growth conditions for the trial plants. After about 3 weeks, the effect of the preparations is scored visually in comparison with untreated controls as percentages. For example, 100% activity=the plants have died, 0% activity=like control plants. Tables 13 to 26 below show the effects of selected compounds of the general formula (I) on various harmful plants and at an application rate corresponding to 320 g/ha, which were obtained by the experimental procedure mentioned above.

The next test concerns ECHGC. As to the kind of experiment: Pre-emergence action at 320 g/ha against ECHGC. It is filed as in vivo, Echinochloa crus-galli. Particulars: visual scoring after about 3 weeks vs untreated controls. Summed up:
as §1

The subject of test [6] is AMARE. As to the kind of experiment: Pre-emergence action at 320 g/ha against AMARE. Particulars: visual scoring after about 3 weeks vs untreated controls. The test is classed as in vivo, Amaranthus retroflexus. Summed up:
as §1

In test [7] the test system is SETVI. The test can be described thus: Post-emergence action at 320 g/ha against SETVI. It is filed as in vivo, Setaria viridis. Particulars: visual rating about 3 weeks after treatment vs untreated controls. An excerpt:
(§2) Accordingly, the compounds of the invention have good herbicidal action against a broad spectrum of weed grasses and broad-leaved weeds and are therefore suitable for controlling unwanted vegetation by the post-emergence method. • b) Seeds of monocotyledonous and dicotyledonous weeds and crop plants are placed in sandy loam in plastic or organic planting pots, covered with soil and cultivated in a greenhouse under controlled growth conditions. 2 to 3 weeks after sowing, the test plants are treated at the one-leaf stage. The compounds of the invention, formulated in the form of wettable powders (WP) or as emulsion concentrates (EC), are then sprayed onto the green parts of the plants as aqueous suspension or emulsion with addition of 0.5% additive at a water application rate of 600 l/ha (converted). After the test plants have been kept in the greenhouse under optimum growth conditions for about 3 weeks, the activity of the preparations is rated visually in comparison to untreated controls. For example, 100% activity=the plants have died, 0% activity=like control plants. Tables 39 to 49 below show the effects of selected compounds of the general formula (I) according to Tables 1 and 2 on various harmful plants and at an application rate corresponding to 320 g/ha, which were obtained by the experimental procedure mentioned above.

Test [8] deals with ALOMY. The test can be described thus: Post-emergence action against ALOMY, 320 g/ha. It is filed as in vivo, Alopecurus myosuroides. Particulars: dosage 320 g/ha, visual rating about 3 weeks after treatment vs untreated controls (100% = plants died).
From the text: as §2

Test [9] deals with VIOTR. The test can be described thus: Post-emergence action at 320 g/ha against VIOTR. It is filed as in vivo, Viola tricolor. The settings on record: Viola tricolor, 504 h, visual rating about 3 weeks after treatment vs untreated controls.
From the text: as §2

The test system of test [10] is POLCO. The test can be described thus: Post-emergence action at 320 g/ha against POLCO. The test is classed as in vivo, Fallopia convolvulus (Polygonum convolvulus). The settings on record: Fallopia convolvulus, 504 h, visual rating about 3 weeks after treatment vs untreated controls.
From the text: as §2

A further test has as its system ECHCG. As to the kind of experiment: Post-emergence action at 320 g/ha against ECHCG. It is filed as in vivo, Echinochloa crus-galli. Particulars: dosage 320 g/ha, visual rating about 3 weeks after treatment vs untreated controls (100% = plants died).
From the text: as §2

In test [11] the test system is DIGSA. The test can be described thus: Pre-emergence action at 320 g/ha against DIGSA. It is filed as in vivo, Digitaria sanguinalis. The settings on record: Digitaria sanguinalis, 504 h, visual scoring after about 3 weeks vs untreated controls. In a few lines:
as §1

Test [12] relates to AMARE. The test can be described thus: Post-emergence action at 320 g/ha against AMARE. The test is classed as in vivo, Amaranthus retroflexus. The settings on record: Amaranthus retroflexus, 504 h, visual rating about 3 weeks after treatment vs untreated controls.
From the text: as §2

Test [13] concerns AVEFA. As to the kind of experiment: Post-emergence action at 320 g/ha against AVEFA. The test is classed as in vivo. The settings on record: Avena fatua, 504 h, visual rating about 3 weeks after treatment vs untreated controls.
From the text: as §2

Test [14] concerns DIGSA. As to the kind of experiment: Post-emergence action at 320 g/ha against DIGSA. It is filed as in vivo, Digitaria sanguinalis. Particulars: Digitaria sanguinalis, 504 h, dosage 320 g/ha, visual rating about 3 weeks after treatment vs untreated controls (100% = plants died).
From the text: as §2

Consider `CCOC(=O)CN(C)S(=O)(=O)NC(=O)COc1nn(-c2ccccc2F)c(-c2cncc(F)c2)c1Br` [Example X-041], for which the “Pre-emergence action against LOLRI in %” value in the test with LOLRI is 90%. In addition, in the test with MATIN, the “Pre-emergence action against MATIN in %” value was 90%. Also, the “Pre-emergence action against VERPE in %” value with VERPE was determined as 100%. In addition, the “Pre-emergence action against POLCO in %” value in the test with POLCO [1] was found to be 90%. In the test with ALOMY [2], the “Pre-emergence action at 320 g/ha against ALOMY in %” value was 100%. Also, the “Pre-emergence action against SETVI in %” value in the test with SETVI [3] is on record as 90%. In the test on VIOTR [4], the “Pre-emergence action against VIOTR in %” value turned out to be 100%. Also, the “Pre-emergence action against AVEFA in %” value in the test with AVEFA [5] is 80%. Further, the “Pre-emergence action against PHBPU in %” value with PHBPU is reported as 90%. In addition, the “Pre-emergence action against ECHGC in %” value with ECHGC was found to be 80%. Further, in the test on AMARE [6], the “Pre-emergence action against AMARE in %” value is 90%.

The term pest or weed control denotes the degree to which the test organism was suppressed or injured, in per cent. As for `COC(=O)[C@@H](C)Oc1nn(-c2ccccc2F)c(-c2ccc(F)nc2)c1Br` [VII-004, Methyl (2R)-2-{[4-bromo-1-(2-fluorophenyl)-5-(6-fluoropyridin-3-yl)-1H-pyrazol-3-yl]oxy}propanoate], the pest or weed control at 320 g/ha with LOLRI (Lolium rigidum, 504 h) came to 80%; in the test with MATIN (Tripleurospermum inodorum, 504 h), 80%; in the test with POLCO [1] (Fallopia convolvulus, 504 h), 90%; in the test on ALOMY [2] (Alopecurus myosuroides, 504 h), 90%; with VIOTR [9], 90%; with POLCO [10], 80%. In addition, the pest or weed control at 320 g/ha in the test on SETVI [3] (Setaria viridis, 504 h) was 100%; in the test on DIGSA [11], 100%; with VIOTR [4] (Viola tricolor, 504 h) it was 100%; in the test with AMARE [12] it was 90%; in the test on AVEFA [13] it was 90%; with AMARE [6] (Amaranthus retroflexus, 504 h), 90%. This compound displayed a pest or weed control at 320 g/ha with DIGSA [14] of 90%. In addition, the “Post-emergence action against SETVI in %” value with SETVI [7] was 90%. The “Post-emergence action against ALOMY” value with ALOMY [8] came to 90%. In the test on ECHCG, the “Post-emergence action at 320 g/ha against ECHCG in %” value worked out at 90%.

These data come from patent US12180187B2, “1-phenyl-5-azinylpyrazolyl-3-oxyalkyl acids and their use for controlling unwanted plant growth” (BAYER AKTIENGESELLSCHAFT, priority 2019, dated 2024).
